Test: HPLC analysis of oil (top) and aqueous (bottom) layers of centrifuged O/W emulsions
Type: physicochemical
Conditions: control or Bottom layer-Water; target 8.00 mg/mL
Description: O/W emulsions were prepared by combining the hydrophobic phase (DPX-empty in Montanide™ ISA 51 oil) and the aqueous phase (containing an aqueous phase agent) with 120 passes through a Vygon™ connector.
For analysis by High Performance Liquid Chromatography (HPLC), the O/W emulsion formulations were centrifuged at 15,000 RPM for 30 minutes to separate oil (top) and aqueous (bottom) layers, and samples from both layers were analysed. Samples were prepared using n-Butanol Extraction method (for oil phase) and Total solubilization method (for aqueous phase). n-Butanol Extraction method (for oil phase): To 100 μL of the top layer oil sample 300 μL of 0.1M NaHCO3 and 400 μL of water saturated 1-Butanol were added. Sample was vortexed to mix and centrifuged for 2 mins at 5000 RPM. The bottom layer was taken for analysis. Total solubilization method (for aqueous phase): To 75 μL of the bottom layer aqueous sample, up to 5 mL of mobile phase A was added. The mobile phases used for cyclophosphamide, oligonucleotide and anti-CTLA4 analysis were as follows, Cyclophosphamide: Mobile Phase A: 30% acetonitrile in water; Mobile Phase B: methanol. Oligonucleotide: Mobile Phase A: mix of tris, acetonitrile, water; Mobile Phase B: mix of tris, NaCL, acetonitrile, water. Anti-CTLA4: Mobile Phase A: 0.1% TFA/water; Mobile Phase B: 0.1% TFA/acetonitrile; Mobile Phase C: methanol. […]

## O=P1(N(CCCl)CCCl)NCCCO1 (stereo not shown) [Cyclophosphamide control, N,N-bis(2-chloroethyl)-1,3,2-oxazaphosphinan-2-amine 2-oxide]
  Cyclophosphamide Concentration: 6.76 mg/mL

Source: patent US20230000769A1, “OIL-IN-WATER EMULSION FORMULATIONS FOR DELIVERY OF ACTIVE OR THERAPEUTIC AGENTS” (IMMUNOVACCINE TECHNOLOGIES INC., priority 2019, published 2023)
